Where two headings read alike, the source gives them in different places.
What was measured:
[1] = target: Y537N mutant ERα receptor (Homo sapiens, UniProt P03372, Y537N); test: PRα inhibition (ERα functional antagonism) cell assay in MCF7-ESR1 Y537N 682 CRISPR cells; format: cell-based; conditions: MCF7 Y537N 682 CRISPR cells, 72 hours, % PR positive cells; read-out: Relative IC50
Protocol: An antagonist in this assay is expected to block the function of the ERα receptor.
Incubate the cells overnight in a cell culture incubator (5% CO2, 95% relative humidity and 37° C.) and allow the cells to attach to the plate. The following day dose the cells with the test compound. Use an Echo 555 acoustic dispenser to prepare compound serial dilutions (1:3) in a range from 6 μM to 0.0003 μM. Dose the cells with the addition of 5 μL from the serial dilution plate to the cell plate producing a final DMSO concentration of 0.2% with a final test compound concentration dose range between 2 and 0.0001 μM. For the maximum point use media containing 0.2% of DMSO and for the minimum point, use fulvestrant diluted at 2 μM final concentrations in the growth media containing 0.2% DMSO. After dosing with test compound, incubate the cell plates at 37° C. and 5% CO2 for 72 hours. Fix the cells by adding 14% para-formaldehyde (10 μL) for 30 minutes at room temperature. Wash the cells with PBS (1×20 μL) and incubate with PBS (20 μL) of containing 0.5% (v/v) TWEEN® 20 for 1 hour. Wash the cells with PBS (2×20 μL) 0.05% TWEEN® 20, and block with 3% BSA/PBS 0.05% TWEEN® 20, 0.1% TRITON™ X-100 (20 μL/well) for 1 hour at room temperature. Add 1:500 primary antibody (20 μL) (PR monoclonal mouse anti-human antibody, clone PgR 636 Dako, M3569) dilution in 1% BSA/PBS 0.05 TWEEN® 20 per well, seal the plates and incubate overnight at 4° C.
The following day, wash the cells with PBS […] (2×20 μL) and incubate with secondary antibody (20 μL/well) (1:1000 dilution, Goat anti-rabbit IgM ALEXA FLUOR™ 488) in PBS 1% BSA for 105 minutes at room temperature. […] Seal the plates and incubate 1 hour at room temperature on the bench (preserved from light). Scan the plates with ACUMEN EXPLORER™ [Laser-scanning fluorescence microplate cytometer manufactured by TTP LABTECH LTD] to measure PRα. Image analysis is based on cellular fluorescent signals for identifying positive cells. Identify PR positive cells by mean intensity. Use total intensity at 575-640 nm from propidium iodide/DNA to identify individual cells. Assay output is % PR positive cells. Determine the IC50 by curve fitting to a four parameter logistic for each output using GENE DATA™.

[2] = target: ERα (Homo sapiens (Human), UniProt P03372); test: PRα inhibition (ERα functional antagonism) cell assay in MCF7 cells; format: cell-based; conditions: MCF7 cells pretreated with 0.47 nM estradiol, % PRα positive cells; read-out: Relative IC50
Sequence of ERα (P03372 whole entry): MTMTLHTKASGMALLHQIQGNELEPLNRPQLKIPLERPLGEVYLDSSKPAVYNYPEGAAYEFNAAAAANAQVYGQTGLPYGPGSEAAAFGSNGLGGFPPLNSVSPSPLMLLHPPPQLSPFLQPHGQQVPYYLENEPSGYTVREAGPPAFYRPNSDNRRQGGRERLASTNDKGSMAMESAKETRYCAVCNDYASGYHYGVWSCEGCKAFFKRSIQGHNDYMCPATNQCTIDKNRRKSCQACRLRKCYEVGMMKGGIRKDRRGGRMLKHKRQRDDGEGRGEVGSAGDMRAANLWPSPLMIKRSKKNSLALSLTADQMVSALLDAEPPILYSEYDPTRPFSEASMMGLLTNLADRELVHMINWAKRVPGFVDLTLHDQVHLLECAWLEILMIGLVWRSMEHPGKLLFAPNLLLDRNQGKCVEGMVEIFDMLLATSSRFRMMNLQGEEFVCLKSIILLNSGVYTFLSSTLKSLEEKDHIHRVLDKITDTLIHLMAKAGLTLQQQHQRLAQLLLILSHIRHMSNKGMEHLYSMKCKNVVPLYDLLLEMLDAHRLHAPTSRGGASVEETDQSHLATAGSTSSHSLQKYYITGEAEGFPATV
Text: The purpose of the following PRα inhibition (ERα functional antagonism) cell assay is to determine the antagonistic activity of a test compound against the ERα receptor. An antagonist in this assay is expected to block the function of the ERα receptor.
Carry out the assay conditions as detailed in the ERα degradation Cell base Acumen assay above, using the MCF7 cell line except that, prior to test compound dispensing, remove the media from the cell plate and pretreat all wells except for the negative control wells (column 24 of the plate) with assay media containing 0.47 nM estradiol for 30 minutes. In this assay, carry out immunostaining for the detection of PRα and scan the plates with ACUMEN EXPLORER™ [Laser-scanning fluorescence microplate cytometer manufactured by TTP LABTECH LTD] to measure PRα. Image analysis is based on cellular fluorescent signals for identifying positive cells. Identify PRα positive cells by mean intensity. Use total intensity at 575-640 from propidium iodide/DNA to identify individual cells. Assay output is % PRα positive cells. Determine the IC50 by curve fitting to a four parameter logistic for each output using GENE DATA™.

[3] = system: MCF7 ESR1 Y537N mutant cells; test: Cell proliferation assay in MCF7-ESR1 Y537N-682; format: cell-based, human; conditions: seven days, read-out: Relative IC50 (μM) MCF7 ESR1 Y537N mutant cells
Protocol: Seed MCF7 (purchased from ATCC HTB-22) cells at a density of 2,000 cells per well in DMEM phenol red free media 10% FBS (20 μL volume) (charcoal stripped) into a clear bottom 384-well cell culture plate. Plate MCF7-ESRY537N-682 (generated by CRISPR/Cas9 gene editing of ESr1 gene in MCF7 cells, clone #682) in DMEM media supplemented with 10% FBS, and 1% penicillin/streptomycin antibiotics at a density of 1000 cells per well. Incubate the plates at 37° C. and 5% CO2. The following day dose the cells with the test compound. Use an Echo 555 acoustic dispenser to prepare test compound serial dilutions (1:3) in a range from 60 μM to 0.003 μM. Dose the cells with the addition of 5 μL from the serial dilution plate to the cell plate, producing a final DMSO concentration of 0.2% with a final test compound concentration dose range between 20 and 0.001 μM. For the maximum point use media containing 0.2% of DMSO and for the minimum point use fulvestrant diluted at 2 μM final concentrations in the growth media containing 0.2% DMSO. After dosing with the test compound, incubate the cell plates at 37° C. and 5% CO2. Seven days after test compound addition, remove the plates from the incubator and add cold EtOH 96% (65 μL) to each well. […] Seal the plates and incubate 1 hour at room temperature on the bench (preserved from light). Scan the plates with ACUMEN EXPLORER™ [Laser-scanning fluorescence microplate cytometer manufactured by TTP LABTECH LTD].

Compound | IC50 [1] [nM] | IC50 [2] [nM] | IC50 [3] [µM] | IC50 ([3]; Homo sapiens, MCF7, […]) [µM]
Cc1ccc2c(c1)OC(c1ccc(OCCN3CC(CF)C3)cc1)c1c-2cnc2cc(O)ccc12 (racemic) [Example 7, 5-(4-{2-[3-(fluoromethyl)azetidin-1-yl]ethoxy}phenyl)-8-methyl-5H-[1]benzopyrano[4,3-c]quinolin-2-ol] | 127 | 113 ± 20.9 |  | 0.0448 ± 0.0119
Oc1ccc2c3c(cnc2c1)-c1ccc(F)cc1OC3c1ccc(OCCN2CC(CF)C2)cc1 (racemic) [Example 5, 8-fluoro-5-(4-{2-[3-(fluoromethyl)azetidin-1-yl]ethoxy}phenyl)-5H-[1]benzopyrano[4,3-c]quinolin-2-ol] | 66.1 ± 15.5 | 118 ± 12.3 |  | 0.0725 ± 0.0263
Oc1ccc2c3c(cnc2c1)-c1cccc(Cl)c1OC3c1ccc(OCCN2CC(CF)C2)cc1 (racemic) [Example 4, 7-chloro-5-(4-{2-[3-(fluoromethyl)azetidin-1-yl]ethoxy}phenyl)-5H-[1]benzopyrano[4,3-c]quinolin-2-ol] | 38.5 ± 3.87 | 76.3 ± 168 |  | 0.0266
Cc1cccc2c1OC(c1ccc(OCCN3CC(CF)C3)cc1)c1c-2cnc2cc(O)ccc12 (racemic) [Example 8, 5-(4-{2-[3-(fluoromethyl)azetidin-1-yl]ethoxy}phenyl)-7-methyl-5H-[1]benzopyrano[4,3-c]quinolin-2-ol] | 41.2 ± 6.57 | 68.3 ± 22.7 |  | 0.0329 ± 0.003
Oc1ccc2c3c(cnc2c1)-c1cccc(F)c1OC3c1ccc(OCCN2CC(CF)C2)cc1 (racemic) [Example 6, 7-fluoro-5-(4-{2-[3-(fluoromethyl)azetidin-1-yl]ethoxy}phenyl)-5H-[1]benzopyrano[4,3-c]quinolin-2-ol] | 63.2 ± 16.1 | 82.6 ± 5.68 |  | 0.0236
Oc1ccc2c3c(cnc2c1)-c1cccc(C(F)(F)F)c1OC3c1ccc(OCCN2CC(CF)C2)cc1 (racemic) [Example 2, 5-(4-{2-[3-(fluoromethyl)azetidin-1-yl]ethoxy}phenyl)-7-(trifluoromethyl)-5H-[1]benzopyrano[4,3-c]quinolin-2-ol] | 14.5 ± 2.62 | 163 |  | 0.0511

The remaining lines, values ahead:

IC50 [1] [nM] | IC50 [2] [nM] | IC50 [3] [µM] | IC50 ([3]; Homo sapiens, MCF7, […]) [µM] | Compound
1640 ± 223 | > 2000 | 0.778 |  | Oc1ccc2c3c(cnc2c1)-c1cccc(C(F)(F)F)c1OC3c1ccc(OCCN2CC(CF)C2)cc1 (single isomer, unassigned) [Example 2B, 5-(4-{2-[3-(Fluoromethyl)azetidin-1-yl]ethoxy}phenyl)-7-(trifluoromethyl)-5H-[1]benzopyrano[4,3-c]quinolin-2-ol]
18.2 ± 9.82 | 32 ± 5.31 | 0.0213 ± 0.013 |  | Oc1ccc2c3c(cnc2c1)-c1ccc(F)cc1OC3c1ccc(OCCN2CC(CF)C2)cc1 (single isomer, unassigned) [Example 5B, 8-Fluoro-5-(4-{2-[3-(fluoromethyl)azetidin-1-yl]ethoxy}phenyl)-5H-[1]benzopyrano[4,3-c]quinolin-2-ol]
11.8 | 28.7 | 0.0143 ± 0.00492 |  | Oc1ccc2c3c(cnc2c1)-c1cccc(Cl)c1OC3c1ccc(OCCN2CC(CF)C2)cc1 (single isomer, unassigned) [Example 4B, 7-Chloro-5-(4-{2-[3-(fluoromethyl)azetidin-1-yl]ethoxy}phenyl)-5H-[1]benzopyrano[4,3-c]quinolin-2-ol]
 |  | 0.0167 ± 0.0091 |  | Oc1ccc2c3c(cnc2c1)-c1ccc(C(F)(F)F)cc1OC3c1ccc(OCCN2CC(CF)C2)cc1 (single isomer, unassigned) [Example 1B, 5-(4-{2-[3-(Fluoromethyl)azetidin-1-yl]ethoxy}phenyl)-8-(trifluoromethyl)-5H-[1]benzopyrano[4,3-c]quinolin-2-ol]
13.6 | 28.4 | 0.0154 |  | Oc1ccc2c3c(cnc2c1)-c1cccc(F)c1OC3c1ccc(OCCN2CC(CF)C2)cc1 (single isomer, unassigned) [Example 6B, 7-Fluoro-5-(4-{2-[3-(fluoromethyl)azetidin-1-yl]ethoxy}phenyl)-5H-[1]benzopyrano[4,3-c]quinolin-2-ol]
24.9 ± 7.39 | 121 ± 53.7 | 0.0428 ± 0.00267 |  | Oc1ccc2c3c(cnc2c1)-c1cccc(C(F)(F)F)c1OC3c1ccc(OCCN2CC(CF)C2)cc1 (single isomer, unassigned) [Example 2A, 5-(4-{2-[3-(Fluoromethyl)azetidin-1-yl]ethoxy}phenyl)-7-(trifluoromethyl)-5H-[1]benzopyrano[4,3-c]quinolin-2-ol]
394 | 600 | 0.517 ± 0.095 |  | Oc1ccc2c3c(cnc2c1)-c1ccc(F)cc1OC3c1ccc(OCCN2CC(CF)C2)cc1 (single isomer, unassigned) [Example 5A, 8-Fluoro-5-(4-{2-[3-(fluoromethyl)azetidin-1-yl]ethoxy}phenyl)-5H-[1]benzopyrano[4,3-c]quinolin-2-ol]
505 | 846 | 0.544 ± 0.218 |  | Oc1ccc2c3c(cnc2c1)-c1cccc(Cl)c1OC3c1ccc(OCCN2CC(CF)C2)cc1 (single isomer, unassigned) [Example 4A, 7-Chloro-5-(4-{2-[3-(fluoromethyl)azetidin-1-yl]ethoxy}phenyl)-5H-[1]benzopyrano[4,3-c]quinolin-2-ol]
8.93 ± 3.83 | 48.5 ± 29.4 | 0.0142 ± 0.0111 |  | Cc1cccc2c1OC(c1ccc(OCCN3CC(CF)C3)cc1)c1c-2cnc2cc(O)ccc12 (single isomer, unassigned) [Example 8B, 5-(4-{2-[3-(Fluoromethyl)azetidin-1-yl]ethoxy}phenyl)-7-methyl-5H-[1]benzopyrano[4,3-c]quinolin-2-ol]
236 | 253 | 0.323 ± 0.176 |  | Oc1ccc2c3c(cnc2c1)-c1cccc(F)c1OC3c1ccc(OCCN2CC(CF)C2)cc1 (single isomer, unassigned) [Example 6A, 7-Fluoro-5-(4-{2-[3-(fluoromethyl)azetidin-1-yl]ethoxy}phenyl)-5H-[1]benzopyrano[4,3-c]quinolin-2-ol]
434 ± 195 | 206 | 0.662 ± 0.117 |  | Cc1cccc2c1OC(c1ccc(OCCN3CC(CF)C3)cc1)c1c-2cnc2cc(O)ccc12 (single isomer, unassigned) [Example 8A, 5-(4-{2-[3-(Fluoromethyl)azetidin-1-yl]ethoxy}phenyl)-7-methyl-5H-[1]benzopyrano[4,3-c]quinolin-2-ol]
